In patent US20200095296A1, “USE OF PEPTIDES AS BIOMARKERS IN THE DIAGNOSIS, CONFIRMATION AND TREATMENT OF A NEUROLOGICAL DISORDER AND TCR AND/OR HLA IMMUNOPROFILING IN NEURODEGENERATIVE DISEASE” (THE TRUSTEES OF COLUMBIA UNIVERSITY IN THE CITY OF NEW YORK, priority 2017, published 2020):
Where no end group is shown, it is not given here. [ ]: non-standard residue; d: D form. pT = C[C@@H](OP(=O)(O)O)[C@H](N)C(=O)O; pS = N[C@@H](COP(=O)(O)O)C(=O)O

Tested on: PBMC
Assay: IFNg/IL-5 dual ELISPOT after 14 day in vitro stimulation of PBMC with Tau peptides
Type: cell-based, human
Conditions: for PD % of Total Responders / PD Total Responders / PD Total SFC: PD donors; for % of total response / Average SFC per responder / Frequency of response / Total SFC per epitope: across all cohorts; for Total Responders / Total SFC: all three cohorts (PD, HC > 50, HC < 35); for HC < 35 Total Responders / HC < 35 Total SFC: healthy controls < 35 years old
Source text: It was investigated whether T cell responses against Tau were detectable in the PD and healthy control (HC) donors. To this end, a panel of overlapping peptides spanning through the entire sequence of the Tau protein was synthesized. Since it is known that the Tau protein is post-translationally modified (mainly by phosphorylation), in several instances phosphorylated peptides were also synthesized. In all, 55 non-modified 16-mers overlapping by 8 and 14 modified 16-mers were synthesized.
PD: n=16, peptides tested 14-16 times; HC above 50 years old denominated as age-matched: n=11 (9-11 times) and HC below 35 years old (HC Young): n=13 (10-13 times).
These peptides were tested utilizing the following assay strategy. Briefly, PBMC from each donor were stimulated in vitro for 14 days as described (Hinz, D., 2015) with pools of 10 to 16 peptides each. After 14 days, the T cell cultures were assayed with IFNg/IL-5 dual ELISPOT assays […]. Positive pools were deconvoluted at day 17 to identify the specific individual epitopes recognized.

[1] = healthy controls > 50 years old

| Sequence | PD/HC > 50 Ratio of % Responders | PD/HC > 50 Ratio of Response | HC > 50 % of Total Responders | HC > 50 Total SFC (HC > 50, dominant epitopes) | PD % of Total Responders | PD Total Responders | PD Total SFC | PD Total SFC (dominant epitopes) | % of total response | Average SFC per responder | Frequency of response | Total SFC per epitope | Total Responders | Total SFC | HC < 35 Total Responders | HC < 35 Total SFC | HC > 50 Total Responders [1] | HC > 50 Total SFC [1] |
| --- | --- | --- | --- | --- | --- | --- | --- | --- | --- | --- | --- | --- | --- | --- | --- | --- | --- | --- |
| DRSGYSSPGZPGXPGS | 5.0 | 7.3 | 11.1% | 187 SFC | 55.6% | 5 | 1360 SFC | 1360 SFC | 1.6% | 611 SFC | 17.0 | 5499 SFC | 9 | 5499 SFC | 3 | 3952 SFC | 1 | 187 SFC |
| TRIPAKTPPAPKTPPS (listed as Homo sapiens) [Tau 16-mer, start 169] | 1.0 | 8.1 | 33.3% | 180 SFC | 33.3% |  |  | 145 SFC | 1.1% | 1299 SFC | 5.7 | 3897 SFC |  |  |  |  |  |  |
| VYKSPVVSGDTSPRHL (listed as Homo sapiens) [Tau 16-mer, start 393] | 1.0 | 2.6 | 42.9% | 3397 SFC | 42.9% |  |  | 8951 SFC | 3.8% | 1915 SFC | 13.2 | 13408 SFC |  |  |  |  |  |  |
| PMPDLKNVKSKIGSTE (PMPDLKNVKSKIG[pS]TE; listed as Homo sapiens) [Tau 16-mer, start 249] | 1.7 | 2.2 | 30.0% | 6084 SFC | 50.0% | 5 | 13363 SFC | 13363 SFC | 5.7% | 1982 SFC | 18.9 | 19815 SFC | 10 | 19815 SFC | 2 | 368 SFC | 3 | 6084 SFC |
| ATLADEVSASLAKQGL (listed as Homo sapiens) [Tau 16-mer, start 426] | 1.5 | 0.8 | 40.0% | 2803 SFC | 60.0% |  |  | 2193 SFC | 1.4% | 999 SFC | 9.4 | 4997 SFC |  |  |  |  |  |  |
| IDMVDSPQLATLADEV (listed as Homo sapiens) [Tau 16-mer, start 417] |  |  |  |  |  | 1 | 173 SFC |  |  |  |  |  | 1 | 173 SFC | 0 | 0 SFC | 0 | 0 SFC |
| VDLSKVTSKCGSLGNI (listed as Homo sapiens) [Tau 16-mer, start 313] | 2.0 | 7.5 | 28.6% | 897 SFC | 57.1% |  |  | 671 SFC | 2.8% | 1409 SFC | 13.2 | 9861 SFC |  |  |  |  |  |  |
| KVAVVRXPPKSPSSAK | 4.0 | 3.2 | 13.0% | 6987 SFC | 52.2% | 12 | 22410 SFC | 22410 SFC | 13.2% | 12014 SFC | 43.4 | 46324 SFC | 23 | 46324 SFC | 8 | 16927 SFC | 3 | 6987 SFC |
| ADGKTKIATPRGAAPP (listed as Homo sapiens) [Tau 16-mer, start 145] | 1.0 | 0.5 | 50.0% | 3577 SFC | 50.0% |  |  | 1633 SFC | 1.5% | 868 SFC | 11.3 | 5210 SFC |  |  |  |  |  |  |
| GQKGQANATRIPAKTP (listed as Homo sapiens) [Tau 16-mer, start 161] | 4.0 | 3.5 | 16.7% | 1770 SFC | 66.7% |  |  | 6247 SFC | 2.3% | 1361 SFC | 11.3 | 8164 SFC |  |  |  |  |  |  |
| SNVSSTGSIDMVDZPQ |  |  |  |  |  | 4 | 1484 SFC |  |  |  |  |  | 4 | 1484 SFC | 0 | 0 SFC | 0 | 0 SFC |
| DFKDRVQSKIGZLDNI | 2.0 | 3.7 | 28.6% | 1220 SFC | 57.1% | 4 | 4490 SFC | 4490 SFC | 1.9% | 972 SFC | 13.2 | 6807 SFC | 7 | 6807 SFC | 1 | 1097 SFC | 2 | 1220 SFC |
| SNVSSTGSIDMVDSPQ (listed as Homo sapiens) [Tau 16-mer, start 409] |  |  |  |  |  | 2 | 710 SFC |  |  |  |  |  | 3 | 1767 SFC | 0 | 0 SFC | 1 | 1057 SFC |
| LATLADEVSASLAKQG (listed as Homo sapiens) [Tau 16-mer, start 425] | 0.3 | 0.5 | 75.0% | 2530 SFC | 25.0% |  |  | 1263 SFC | 1.1% | 948 SFC | 7.5 | 3793 SFC |  |  |  |  |  |  |
| GDTSPRHLSNVSSTGS (listed as Homo sapiens) [Tau 16-mer, start 401] | 0.3 | 0.6 | 50.0% | 1657 SFC | 16.7% |  |  | 997 SFC | 1.1% | 633 SFC | 11.3 | 3798 SFC |  |  |  |  |  |  |
| KIGSLDNITHVPGGGN (listed as Homo sapiens) [Tau 16-mer, start 353] | inf | inf | 0.0% | 0 SFC | 100.0% |  |  | 4070 SFC | 1.2% | 4070 SFC | 1.9 | 4070 SFC |  |  |  |  |  |  |
| KKIETHKLTFRENAKA (listed as Homo sapiens) [Tau 16-mer, start 369] | 1.4 | 1.4 | 31.3% | 5898 SFC | 43.8% |  |  | 8190 SFC | 5.4% | 1174 SFC | 30.2 | 18790 SFC |  |  |  |  |  |  |
| KVAVVRTPPKSPSSAK (KVAVVR[pT]PPKSPSSAK; listed as Homo sapiens) | inf | inf | 0.0% | 0 SFC | 100.0% | 5 | 4556 SFC | 4556 SFC | 1.3% | 911 SFC | 9.4 | 4556 SFC | 5 | 4556 SFC | 0 | 0 SFC | 0 | 0 SFC |
